Experimental data reported in PubChem BioAssay AID248 (DTP/NCI, 2004).
Toxic doses and inconclusive results are not listed.

System: L1210 leukemia ip in BDF1 mice, survival T/C
Assay: NCI In Vivo Anticancer Drug Screen. Data for tumor model L1210 Leukemia (intraperitoneal) in B6D2F1 (BDF1) mice
Conditions: endpoint: mean survival time, higher = longer survival
Method in brief: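 Each compound was tested against a transplantable tumor grown in mice. The endpoint was survival, with treated animals benchmarked against vehicle controls as a simple ratio.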

[1] = dose: 100.0 mg/kg/injection, schedule: Q01DX001 (ip), vehicle: Klucel (hydroxypropylcellulose) (HPC)
[2] = dose: 100.0 mg/kg/injection, schedule: Q01DX009 (ip), vehicle: Klucel (hydroxypropylcellulose) (HPC)
[3] = dose: 200.0 mg/kg/injection, schedule: Q01DX001 (ip), vehicle: Klucel (hydroxypropylcellulose) (HPC)
[4] = dose: 200.0 mg/kg/injection, schedule: Q01DX009 (ip), vehicle: Klucel (hydroxypropylcellulose) (HPC)
[5] = dose: 400.0 mg/kg/injection, schedule: Q01DX001 (ip), vehicle: Klucel (hydroxypropylcellulose) (HPC)
[6] = dose: 400.0 mg/kg/injection, schedule: Q01DX009 (ip), vehicle: Klucel (hydroxypropylcellulose) (HPC)
[7] = dose: 25.0 mg/kg/injection, schedule: Q01DX009 (ip), vehicle: saline
[8] = dose: 50.0 mg/kg/injection, schedule: Q01DX001 (ip), vehicle: saline
[9] = dose: 50.0 mg/kg/injection, schedule: Q01DX009 (ip), vehicle: saline
[10] = dose: 200.0 mg/kg/injection, schedule: Q01DX001 (ip), vehicle: saline
[11] = dose: 400.0 mg/kg/injection, schedule: Q01DX001 (ip), vehicle: saline
[12] = dose: 100.0 mg/kg/injection, schedule: Q01DX001 (ip), vehicle: saline
[13] = dose: 100.0 mg/kg/injection, schedule: Q01DX009 (ip), vehicle: saline
[14] = dose: 100.0 mg/kg/injection, schedule: Q04DX003 (ip), vehicle: saline
[15] = dose: 200.0 mg/kg/injection, schedule: Q04DX003 (ip), vehicle: saline
[16] = dose: 400.0 mg/kg/injection, schedule: Q04DX003 (ip), vehicle: saline
[17] = dose: 100.0 mg/kg/injection, schedule: Q04DX002 (ip), vehicle: Klucel (hydroxypropylcellulose) (HPC)
[18] = dose: 200.0 mg/kg/injection, schedule: Q04DX002 (ip), vehicle: Klucel (hydroxypropylcellulose) (HPC)
[19] = dose: 400.0 mg/kg/injection, schedule: Q04DX002 (ip), vehicle: Klucel (hydroxypropylcellulose) (HPC)
[20] = dose: 100.0 mg/kg/injection, schedule: Q04DX003 (ip), vehicle: Klucel (hydroxypropylcellulose) (HPC)
[21] = dose: 200.0 mg/kg/injection, schedule: Q04DX003 (ip), vehicle: Klucel (hydroxypropylcellulose) (HPC)
[22] = dose: 400.0 mg/kg/injection, schedule: Q04DX003 (ip), vehicle: Klucel (hydroxypropylcellulose) (HPC)

O=C(c1ccccc1)C1OC1(CBr)c1ccccc1 (stereo not drawn)
T/C (dose: 6.25 mg/kg/injection, schedule: Q01DX009 (ip), vehicle: alcohol): 96 % of control | T/C (dose: 12.5 mg/kg/injection, schedule: Q01DX009 (ip), vehicle: alcohol): 95 % of control | T/C (dose: 25.0 mg/kg/injection, schedule: Q01DX009 (ip), vehicle: alcohol): 98 % of control | T/C [1]: 100 % of control | T/C [2]: 106 % of control | T/C [3]: 105 % of control | T/C [4]: 98 % of control | T/C [5]: 106 % of control | T/C [6]: 96 % of control

CN(C)/N=N/c1ncn[nH]1
T/C (dose: 3.0 mg/kg/injection, schedule: Q01DX009 (ip), vehicle: saline): 117 % of control | T/C (dose: 6.0 mg/kg/injection, schedule: Q01DX009 (ip), vehicle: saline): 114 % of control | T/C (dose: 12.5 mg/kg/injection, schedule: Q01DX001 (ip), vehicle: saline): 104 % of control | T/C (dose: 12.5 mg/kg/injection, schedule: Q01DX009 (ip), vehicle: saline): 151 % of control | T/C (dose: 12.5 mg/kg/injection, schedule: Q04DX003 (ip), vehicle: saline): 120 % of control | T/C (dose: 22.0 mg/kg/injection, schedule: Q04DX003 (ip), vehicle: saline): 123 % of control | T/C (dose: 25.0 mg/kg/injection, schedule: Q01DX001 (ip), vehicle: saline): 108 % of control | T/C [7]: 203 % of control | T/C [8]: 116 % of control | T/C [9]: 115 % of control | T/C [10]: 155 % of control | T/C [11]: 91 % of control

CC(C)(C)C1CCCC(NC(=O)N(CCCl)N=O)C1 (stereo not drawn)
T/C (dose: 6.0 mg/kg/injection, schedule: Q01DX001 (ip), vehicle: other): 111 % of control | T/C (dose: 12.0 mg/kg/injection, schedule: Q01DX001 (ip), vehicle: other): 108 % of control | T/C (dose: 46.0 mg/kg/injection, schedule: Q01DX001 (ip), vehicle: other): 153 % of control | T/C (dose: 93.0 mg/kg/injection, schedule: Q01DX001 (ip), vehicle: other): 187 % of control | T/C (dose: 187.0 mg/kg/injection, schedule: Q01DX001 (ip), vehicle: other): 238 % of control | T/C (dose: 250.0 mg/kg/injection, schedule: Q01DX001 (ip), vehicle: other): 218 % of control | T/C (dose: 375.0 mg/kg/injection, schedule: Q01DX001 (ip), vehicle: other): 164 % of control | T/C (dose: 500.0 mg/kg/injection, schedule: Q01DX001 (ip), vehicle: other): 118 % of control

C1CCC2(CC1)SCCCS2
T/C [12]: 102 % of control | T/C [10]: 113 % of control | T/C [11]: 110 % of control

C[C@]12C[C@H](O)[C@H]3[C@@H](CCC4=CC(=O)CC[C@@]43C)[C@@H]1CC[C@@H]2C(=O)CF
T/C (dose: 50.0 mg/kg/injection, schedule: Q01DX Z (sc), vehicle: steriod suspending solution): 95 % of control | T/C (dose: 250.0 mg/kg/injection, schedule: Q01DX Z (sc), vehicle: steriod suspending solution): 102 % of control | T/C (dose: 500.0 mg/kg/injection, schedule: Q01DX Z (sc), vehicle: steriod suspending solution): 98 % of control

COc1ccc(-n2c(=O)c(N=Nc3ccc(Br)cc3)c(O)n(-c3ccccc3Cl)c2=S)cc1
T/C (dose: 37.5 mg/kg/injection, schedule: Q01DX001 (ip), vehicle: Klucel (hydroxypropylcellulose) (HPC)): 110 % of control | T/C (dose: 75.0 mg/kg/injection, schedule: Q01DX001 (ip), vehicle: Klucel (hydroxypropylcellulose) (HPC)): 104 % of control | T/C (dose: 150.0 mg/kg/injection, schedule: Q01DX001 (ip), vehicle: Klucel (hydroxypropylcellulose) (HPC)): 95 % of control

Cc1cccc(NNC(N)=O)c1
T/C (dose: 55.0 mg/kg/injection, schedule: Q01DX Z (ip), vehicle: saline): 103 % of control | T/C (dose: 83.0 mg/kg/injection, schedule: Q01DX Z (ip), vehicle: saline): 97 % of control | T/C (dose: 125.0 mg/kg/injection, schedule: Q01DX Z (ip), vehicle: saline): 101 % of control

COc1ccc2c(c1C)CCC1(CO)CC(C)=CCC21 (stereo not drawn)
T/C (dose: 100.0 mg/kg/injection, schedule: Q01DX009 (ip), vehicle: saline sonified): 93 % of control | T/C (dose: 200.0 mg/kg/injection, schedule: Q01DX009 (ip), vehicle: saline sonified): 94 % of control | T/C (dose: 400.0 mg/kg/injection, schedule: Q01DX009 (ip), vehicle: saline sonified): 91 % of control

CNC(=O)Nc1ccc(C(=O)OCC(C)C)cc1
T/C [2]: 104 % of control | T/C [4]: 115 % of control | T/C [6]: 104 % of control

CC(N)(CCCN)C(=O)O (stereo not drawn)
T/C [13]: 102 % of control | T/C [14]: 104 % of control | T/C (dose: 200.0 mg/kg/injection, schedule: Q01DX009 (ip), vehicle: saline): 102 % of control | T/C [15]: 102 % of control | T/C (dose: 400.0 mg/kg/injection, schedule: Q01DX009 (ip), vehicle: saline): 94 % of control | T/C [16]: 101 % of control

CCN(CC)CCCC(C)Nc1ccc(O)c2c1C(=O)c1ccccc1C2=O (stereo not drawn)
T/C [7]: 100 % of control | T/C [9]: 93 % of control | T/C [13]: 104 % of control | T/C (dose: 100.0 mg/kg/injection, schedule: Q04DX002 (ip), vehicle: saline): 100 % of control | T/C (dose: 200.0 mg/kg/injection, schedule: Q04DX002 (ip), vehicle: saline): 102 % of control

CCCCCCCC(=O)/C=C/c1ccc(C)cc1
T/C [14]: 105 % of control | T/C [15]: 103 % of control | T/C [16]: 92 % of control

Cc1cc(C)c2[nH]c(=O)c(C)c(C)c2c1Br
T/C (dose: 100.0 mg/kg/injection, schedule: Q01DX001 (ip), vehicle: other): 102 % of control | T/C (dose: 200.0 mg/kg/injection, schedule: Q01DX001 (ip), vehicle: other): 94 % of control | T/C (dose: 400.0 mg/kg/injection, schedule: Q01DX001 (ip), vehicle: other): 100 % of control

COc1ccc(CCOC(C)=O)cc1OC
T/C [17]: 102 % of control | T/C [18]: 97 % of control | T/C [19]: 97 % of control

O=C(CC1(O)C(=O)Nc2ccccc21)c1ccccc1 (stereo not drawn)
T/C [20]: 101 % of control | T/C [21]: 96 % of control | T/C [22]: 96 % of control

CCOC(=O)NP(=O)(NC1CCCCC1)NC1CCCCC1
T/C (dose: 50.0 mg/kg/injection, schedule: Q01DX001 (ip), vehicle: alcohol): 92 % of control | T/C (dose: 100.0 mg/kg/injection, schedule: Q01DX001 (ip), vehicle: alcohol): 96 % of control | T/C (dose: 200.0 mg/kg/injection, schedule: Q01DX001 (ip), vehicle: alcohol): 90 % of control

O=[N+]([O-])c1cccc(Cl)c1/C=N/Nc1nnc(N/N=C/c2c(Cl)cccc2[N+](=O)[O-])c2ccccc12
T/C [8]: 96 % of control | T/C [12]: 96 % of control | T/C [10]: 98 % of control | T/C [11]: 98 % of control

CCOC(=O)CNc1cccc(C)c1
T/C [17]: 100 % of control | T/C [18]: 110 % of control | T/C [19]: 107 % of control

CC(=O)NCC1OC(COCc2ccccc2)C(OCc2ccccc2)C1OCc1ccccc1 (stereo not drawn)
T/C [20]: 107 % of control | T/C [21]: 96 % of control | T/C [22]: 107 % of control

NC(=O)/C(=C\c1ccc([N+](=O)[O-])o1)c1ccccc1
T/C [1]: 96 % of control | T/C [3]: 93 % of control | T/C [5]: 96 % of control

OC1C2CCC(C2)[CH]1[Hg][Cl] (stereo not drawn)
T/C (dose: 15.0 mg/kg/injection, schedule: Q01DX001 (ip), vehicle: carboxymethylcellulose (CMC)): 95 % of control

OC1C#CCCCCC(O)C#CCCCC1 (stereo not drawn)
T/C (dose: 18.75 mg/kg/injection, schedule: Q01DX009 (ip), vehicle: saline): 97 % of control | T/C (dose: 37.5 mg/kg/injection, schedule: Q01DX009 (ip), vehicle: saline): 95 % of control | T/C (dose: 37.5 mg/kg/injection, schedule: Q04DX003 (ip), vehicle: acetone): 100 % of control | T/C (dose: 75.0 mg/kg/injection, schedule: Q01DX009 (ip), vehicle: saline): 97 % of control | T/C (dose: 75.0 mg/kg/injection, schedule: Q04DX003 (ip), vehicle: acetone): 97 % of control | T/C (dose: 150.0 mg/kg/injection, schedule: Q04DX003 (ip), vehicle: acetone): 92 % of control
